From patent publication US20260152533A1, “COMBINATION INHIBITORS FOR TREATING FIBROSIS” (Memorial Sloan-Kettering Cancer Center, priority 2021, published 2026)

Key:
Format in all cases: cell-based, mouse
[1] = test system: pyruvate carboxylase (PC); experiment: Stable isotope tracing in NIH-3T3 cells (surrogate for PC activity)
Protocol: Cells were plated in six-well cell culture plates at a concentration aimed to reach 0.5-1×10^6 cells at the time of harvest. For quantification of relative metabolite abundance, cells were cultured with glutamine-free DMEM containing different concentrations of L-glutamine and supplemented with 10% dialyzed FBS and in some experiments were treated with TGFβ for 48 hours. For the [U-^13C]and [3,4-^13C]glucose tracing experiments, cells were cultured as above, and in the last 8 hours media was replaced with DMEM without D-glucose and L-glutamine supplemented with 2 mM or 0.2 mM L-glutamine and 10 mM [U-^13C]or [3,4-^13C]D-glucose (Cambridge Isotope Laboratories) and 10% dialyzed FBS. For the [U-^13C]and [1-^13C]lactate tracing experiments, cells were cultured in 2 or 0.2 mM L-glutamine, 10 or 1 mM D-glucose in the presence or absence of 10 mM sodium lactate, and in the last 8 hours media was replaced with DMEM without D-glucose and L-glutamine supplemented with 2 mM or 0.2 mM L-glutamine, 10 or 1 mM D-glucose, 10 mM [U-^13C]or [1-^13C]sodium lactate (Cambridge Isotope Laboratories) and 10% dialyzed FBS. For relative quantification of metabolites by gas chromatography-mass spectroscopy (GC-MS), cells were washed briefly with PBS, which was then fully aspirated and metabolism was quenched by immediately adding 1 mL of 80:20 methanol:water stored at −80° C. containing 20 μM deuterated 2-hydroxyglutarate (d5-2HG) as an internal standard. For stable isotope tracing experiments, metabolism was quenched without the PBS washing step by adding 1 mL of 80:20 methanol:water as above. After overnight incubation at −80° C., the resulting extracts were scraped on dry ice, transferred into a 1.5 mL centrifuge tube, and centrifuged at 20,000 g for 20 minutes at 4° C. The supernatants were collected in clean tubes and dried in a vacuum evaporator (Genevac EZ-2 Elite) for 2 hours.
For [U-^13C]glucose tracing into proteinogenic amino acids, cells were cultured in 10% Gln in the presence or absence of TGFβ for 48 hours. In the last 24 hours, the media including all treatments was replaced with DMEM without L-glutamine and D-glucose and supplemented with 0.2 mM L-glutamine and 10 mM [U-^13C]D-glucose (Cambridge Isotope Laboratories) and 10% dialyzed FBS. For [U-^13C]lactate tracing into ECM, confluent cells were cultured in 10% Gln in the presence of 10 mM [U-^13C]sodium lactate for 6 days. The media was replaced every other day. ECM was decellularized as described above. Cells and ECM were washed with PBS, and proteins were precipitated with methanol:chloroform:water (1:1:1). The interphase was washed with methanol, and the dried pellet was subjected to acid hydrolysis with 6 N hydrochloric acid (HCl) and incubation at 95° C. for 16 hours. Samples were cooled to room temperature and centrifuged at 20,000 g for 10 minutes. The cleared supernatant was dried in a vacuum evaporator (Genevac EZ-2 Elite) for 2 hours, and abundance of aspartate, glutamate/glutamine or hydroxyproline isotopologues was measured by GC-MS as described below.
GC-MS measurements were performed as described before^11. Ions used for quantification of metabolite levels were as follows: d5-2HG m/z 354; citrate m/z 465; alpha-ketoglutarate m/z 304; succinate m/z 247; fumarate m/z 245; malate m/z 335; aspartate m/z 232; hydroxyproline m/z 332; proline m/z 216; glutamate m/z 246; glutamine m/z 245; lactate m/z 219; pyruvate m/z 174. All peaks were manually inspected and verified relative to known spectra for each metabolite. Peak identification and integration were done with MassHunter software vB.09 (Agilent Technologies). For relative quantification of cell samples, integrated peak areas were normalized to the internal standard d5-2HG and to the packed cell volume of each sample. Absolute quantification of hydroxyproline in tumor acid hydrolysates was performed against a standard curve of commercial trans-4-hydroxy-L-proline (Sigma). […]

NIH-3T3 cells = experiment: Collagen abundance in ECM derived from confluent NIH-3T3 cells; conditions: 100% and 50% Gln, TGFβ
Protocol: Culture plates were coated with 0.1% gelatin (Sigma) and treated with 1% glutaraldehyde (Sigma) and 1 M ethanolamine (Sigma). Confluent NIH-3T3 cells, MFBs or PSCs were grown for 6 days on coated plates in the presence of […] sodium ascorbate (Sigma) and treated as indicated, and the medium was replaced every other day. Plates were decellularized with 20 mM ammonium hydroxide/0.5% Triton-X 100 for 5 min on a rotating platform. Three times the volume of PBS was added, and ECM was equilibrated overnight at 4° C., followed by four additional PBS washes. For western blot, preheated sample buffer supplemented with 1 mM dithiothreitol (DTT) was added, ECM was scraped off and boiled, and proteins were separated by SDS-PAGE followed by immunoblotting. To measure collagen abundance, fibroblast-derived ECM was stained with the Picro Sirius Red Stain Kit (Abcam) according to the manufacturer's instructions. The stain was extracted with 0.1 M sodium hydroxide (NaOH) and optical density was measured at 550 nm using a microplate reader. Differences in cell number were controlled for by growing cells on separate plates under the same experimental conditions.

[2] = test system: pyruvate carboxylase (PC); experiment: [3,4-13C]-Glc tracing in PSCs (PC activity); conditions: low Gln (20%), TGFβ 48 hours (FIGS. 10J and 10K)
Protocol: Cells were plated in six-well cell culture plates at a concentration aimed to reach 0.5-1×10^6 cells at the time of harvest. For quantification of relative metabolite abundance, cells were cultured with glutamine-free DMEM containing different concentrations of L-glutamine and supplemented with 10% dialyzed FBS and in some experiments were treated with TGFβ for 48 hours. For the [U-^13C]and [3,4-^13C]glucose tracing experiments, cells were cultured as above, and in the last 8 hours media was replaced with DMEM without D-glucose and L-glutamine supplemented with 2 mM or 0.2 mM L-glutamine and 10 mM [U-^13C]or [3,4-^13C]D-glucose (Cambridge Isotope Laboratories) and 10% dialyzed FBS. […] For relative quantification of metabolites by gas chromatography-mass spectroscopy (GC-MS), cells were washed briefly with PBS, which was then fully aspirated and metabolism was quenched by immediately adding 1 mL of 80:20 methanol:water stored at −80° C. containing 20 μM deuterated 2-hydroxyglutarate (d5-2HG) as an internal standard. […]
GC-MS measurements were performed as described before^11. Ions used for quantification of metabolite levels were as follows: d5-2HG m/z 354; citrate m/z 465; alpha-ketoglutarate m/z 304; succinate m/z 247; fumarate m/z 245; malate m/z 335; aspartate m/z 232; hydroxyproline m/z 332; proline m/z 216; glutamate m/z 246; glutamine m/z 245; lactate m/z 219; pyruvate m/z 174. […]

TGFβ: transforming growth-factor beta; TGFβ-1 purchased from Peprotech
m+3 labelling of aspartate and glutamate/glutamine incorporated into cellular protein ([1]; 10% Gln, TGFβ 48 hours (FIG. 10I)): reduced | m+2 labelling of citrate, indicative of PDH activity ([1]; TGFβ 48 hours (FIG. 3E)): increased | m+3 and/or m+5 labelling of the metabolites analysed from [U-13C]Glc ([1]; high and low Gln medium, TGFβ 48 hours (FIG. 3E)): reduced | low-Gln increase of m+1 labelling of aspartate, malate and citrate from [3,4-13C]Glc (PC activity) ([1]; low Gln, TGFβ 48 hours (FIGS. 3G and 3H)): suppressed | collagen I levels in the ECM secreted by confluent fibroblasts (NIH-3T3 cells): upregulated | PC activity [2]: suppressed
